Measurements reported in patent US11478474B2, “2-(3′-(hydroxymethyl)-1-methyl-5-((5-(2-methyl-4-(oxetan-3-yl)piperazin-1-yl)pyridin-2-yl)amino)-6-oxo-1,6-dihydro-[3,4′-bipyridin]-2′-yl)-7,7-dimethyl-7,8-dihydro-2H-cyclopenta[4,5]pyrrolo[1,2-a]pyrazin-1(6H)-one as a BTK inhibitor” (HUTCHISON MEDIPHARMA LIMITED, priority 2020, dated 2022).

Legend:
[1] = system: B cell activation in rat whole blood; test: Determination of B cell activity in whole blood of rats (anti-rat IgD induced B cell activation, flow cytometry); assay type: cell-based; conditions: anti-rat immunoglobulin D 10 μg/mL, 18 hours, inhibition of B cell activation
Experimental: Example 4 Determination of B Cell Activity in Whole Blood of Rats
1. Reagents and Materials
Peripheral whole blood of female Wistar rats;
In the determination of the compound activity, the collected peripheral whole blood of rat was added to a 96 well plate at 80 μL/well and cultured in a 5% CO2, 37° C. cell incubator. After half an hour, the test compound was diluted with PBS in a 3-fold gradient to the corresponding concentrations, and then the diluted test compound with different concentrations was added to the culture system of rat whole blood at 10 μL/well (the final concentration of the test compound was 1.0, 0.33, 0.11, 0.037, 0.012, 0.0041, 0.0014, and 0.0005 μM, the final concentration of DMSO was 0.3%, double replicate wells), or the control solution (0.3% DMSO, 6 replicate wells) was added to the corresponding well at 10 μL/well, which were incubated in the cell incubator for one hour. Then 10 μL/well of anti-rat immunoglobulin D diluted in PBS (the final concentration was 10 μg/mL) was add to the treating wells of the test compound and control wells for anti-rat immunoglobulin D, or 10 μL/well of PBS was added to the negative control wells, which were mixed well to continue the culture in a 5% CO2, 37° C. cell incubator, and incubated for 18 hours.
On the second day, the 96-well plates were taken out and the flow cytometry antibody mixture (the final concentration of anti-rat B220PE antibody was 1 μg/mL and the final concentration of anti-rat CD86 FITC antibody was 1 μg/mL) diluted with PBS was added to each well of plate, which were incubated for 30 minutes in the dark, and then 50 μL of blood from each well was pipetted to the freshly prepared 500 μL of lysis buffer to lyse red blood cells. The plates were shaken for 20 minutes, centrifuged to remove the supernatant, then washed, fixed, and detected on a flow cytometer.
The B cell activation in the sample was determined by flow dyeing method.
The average value of the proportion of activated B cells in the wells with anti-rat immunoglobulin D but without the test compound was used as the control treating well for anti-rat immunoglobulin D, and the average value of the proportion of activated B cells in the wells without immunoglobulin D stimulation and without the test compound was used as the negative control treating well. According to the B cell activation ratio in each well, the inhibition ratio (%) of each concentration was calculated, and then the IC50 value was obtained by using the 205 model in XL-Fit 5.3 software (ID Business Solutions Limited).
The inhibition ratio is calculated as follows: inhibition ratio (%)=100%−{(treating well for the test compound−negative control treating well)/(control treating well for anti-rat immunoglobulin D−negative control treating well)}×100%, wherein,
Treating well for the test compound: represents the B cell activation ratio in rat whole blood treated with anti-rat immunoglobulin D and the test compound.
Control treating well for anti-rat immunoglobulin D: represents the B cell activation ratio in rat whole blood treated with anti-rat immunoglobulin D but without the test compound.
Negative control treating well: represents the B cell activation ratio in rat whole blood without the test compound and without immunoglobulin stimulation.
Through the above-mentioned test, the compound of the present invention has a potency to inhibit B cell activation in rat whole blood.

BTK recombinant protein = BTK recombinant protein (Homo sapiens (Human), UniProt Q06187); test: Determination of biochemical BTK (Z'-LYTE kinase assay)
Method in brief: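 Human BTK recombinant kinase (3.32 nM final) was preincubated with compound for 30 min at 4 °C. Reaction ran 1 h at room temperature with Tyr01 FRET peptide (2 μM) and ATP (32 μM); development protease then added. Coumarin 445 nm/fluorescein 520 nm emission ratio (400 nm excitation) gave inhibition across 8 concentrations, 3000–1.37 nM.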

[2] = molecular target: phosphorylated BTK in Ramos cells (Homo sapiens (Human), UniProt Q06187); test: Determination of phosphorylated BTK in Ramos cells (BTK phospho-Y223 HTRF); assay type: cell-based; conditions: anti-human IgM + hydrogen peroxide stimulation
Method in brief: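 BTK Y223 phosphorylation measured by HTRF (665/615 nm) in lysates of Ramos cells. Cells were serum-starved 2 h, exposed to compound for 1 h (final 0.00018–3.0 μM, 0.3% DMSO), then stimulated 10 min with 10 μg/mL anti-IgM and 3.3 mM H2O2. IC50 derived from percent inhibition between unstimulated and stimulated controls.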

[3] = system: TMD8 subcutaneous xenograft (human diffuse large B-cell lymphoma cells); test: In vivo efficacy in TMD8 subcutaneous xenograft model in nude mice
Experimental: Example 7 Evaluation of In Vivo Efficacy of the Compound of the Present Invention in TMD8 Subcutaneous Xenograft Model
Objects: To investigate the anti-tumor activity of compound 19 in TMD8 subcutaneous xenograft model in nude mice.
Methods: Human diffuse large B-cell lymphoma cells TMD8 (acquired under license from Tokyo Medical and Dental University) were cultured in RPMI1640 medium containing 10% fetal bovine serum. 1×10^7 tumor cells suspended in RPMI1640 medium mixed well with Matrigel (purchased from Corning, USA) at 1:1 were implanted subcutaneously on the right flank of each male Balb/c nude mouse (Shanghai Lingchang Biotechnology Co., Ltd.), pretreated with cyclophosphamide (at a dose of 200 mg/kg, intraperitoneal injection 24 h before cell inoculation). […] All drugs were administered by oral gavage, once a day, and the vehicle control group was administered orally with 0.5% hydroxypropyl methylcellulose solution (pH=3).
Tumor volumes (tumor volume=0.5×long diameter×short diameter^2) and body weights of the mice were measured regularly. The tumor volume change and body weight were statistically analyzed, with p<0.05 considered statistically significant, and p<0.01 as extremely statistically significant.
The anti-tumor activity was evaluated by tumor growth inhibition. Tumor growth inhibition (TGI %)=100%×(1−(TVDt (treatment group)−TVD0 (treatment group))/(TVDt (control group)−TVD0 (control group))) Relative body weight (RBW %)=BWDt/BWD0×100%
wherein, TVD0 represents the tumor volume obtained at first measurement, namely, the tumor volume before drug administration, and TVDt represents the tumor volume on the day of measurement; BWD0 represents the body weight of the animal obtained at first measurement, namely, the body weight of the animal before drug administration; BWDt represents the body weight of the animal on the day of measurement.

[4] = 50 mg/kg oral gavage once a day, Day 21

Chain of BTK recombinant protein (Q06187 whole entry): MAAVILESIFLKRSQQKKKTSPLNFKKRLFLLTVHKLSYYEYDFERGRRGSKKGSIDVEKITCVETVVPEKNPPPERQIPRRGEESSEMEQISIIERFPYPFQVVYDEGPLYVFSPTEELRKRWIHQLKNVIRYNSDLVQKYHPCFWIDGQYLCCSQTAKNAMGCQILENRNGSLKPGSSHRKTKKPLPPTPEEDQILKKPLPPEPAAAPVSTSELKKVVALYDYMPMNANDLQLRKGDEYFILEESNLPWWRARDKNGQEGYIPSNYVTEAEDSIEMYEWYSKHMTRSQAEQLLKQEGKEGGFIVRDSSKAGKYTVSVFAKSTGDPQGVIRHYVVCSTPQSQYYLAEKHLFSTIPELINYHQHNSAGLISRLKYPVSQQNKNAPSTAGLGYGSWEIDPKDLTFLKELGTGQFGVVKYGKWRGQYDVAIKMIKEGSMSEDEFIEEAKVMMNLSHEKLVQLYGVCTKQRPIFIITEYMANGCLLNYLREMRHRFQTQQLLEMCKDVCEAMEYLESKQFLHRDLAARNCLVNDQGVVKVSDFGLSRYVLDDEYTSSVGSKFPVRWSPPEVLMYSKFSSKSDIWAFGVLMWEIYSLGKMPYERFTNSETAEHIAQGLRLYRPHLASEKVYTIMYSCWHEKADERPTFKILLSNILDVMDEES
Chain of phosphorylated BTK in Ramos cells (Q06187 whole entry): as above

SMILES | IC50 (BTK recombinant protein) | IC50 [2] | other results
C[C@@H]1CN(c2ccc(Nc3cc(-c4ccnc(-n5ccn6c7c(cc6c5=O)CC(C)(C)C7)c4CO)nn(C)c3=O)nc2)[C@@H](C)CN1C1COC1 [Compound 5] | 0.009 µM | – | IC50 [1]: 0.002 µM
CCn1cc(Nc2cc(-c3ccnc(-n4ccn5c6c(cc5c4=O)CC(C)(C)C6)c3CO)nn(C)c2=O)nn1 [Compound 25] | – | 0.024 µM | IC50 [1]: 0.029 µM
CCn1cc(-c2ccnc(-n3ccn4c5c(cc4c3=O)CC(C)(C)C5)c2CO)cc(Nc2ccc(N3C[C@@H](C)N(C4COC4)C[C@@H]3C)cn2)c1=O [Compound 215] | 0.031 µM | 0.051 µM | –
C[C@H]1CN(C2COC2)CCN1c1ccc(Nc2cc(-c3cncc(-n4ccn5c6c(cc5c4=O)CC(C)(C)C6)c3CO)cn(C)c2=O)nc1 [Compound 216] | 0.011 µM | 0.007 µM | –
C[C@@H]1CN(c2ccc(Nc3cc(-c4ccnc(-n5ccn6c7c(c(F)c6c5=O)CCCC7)c4CO)cn(C)c3=O)nc2)[C@@H](C)CN1C1COC1 [Compound 218] | 0.006 µM | 0.012 µM | –
COCCN1CCN(c2ccc(Nc3cc(-c4ccnc(-n5ncn6c7c(cc6c5=O)CC(C)(C)C7)c4CO)cn(C)c3=O)nc2)C(C)(C)C1 [Compound 220] | 0.005 µM | 0.016 µM | –
Cn1cc(-c2ccnc(-n3ccn4c5c(cc4c3=O)CC(C)(C)C5)c2CO)cc(Nc2ccc(N3CCN(C4COC4)CC3)nn2)c1=O [Compound 222] | 0.008 µM | 0.008 µM | –
CC[C@H]1CN(C2COC2)CCN1c1ccc(Nc2cc(-c3ccnc(-n4ncn5c6c(cc5c4=O)CC(C)(C)C6)c3CO)cn(C)c2=O)nc1 [Compound 224] | 0.009 µM | 0.007 µM | –
Cn1cc(-c2ccnc(-n3ccn4c5c(c(F)c4c3=O)CCCC5)c2CO)cc(Nc2ccc(N3CCN(C4COC4)CC3(C)C)cn2)c1=O [Compound 225] | 0.011 µM | 0.009 µM | –
COCCN1CCN(c2ccc(Nc3cc(-c4ccnc(-n5ccn6c7c(cc6c5=O)CC(C)(C)C7)c4CO)cn(C)c3=O)nc2)C(C)(C)C1 [Compound 226] | 0.017 µM | 0.011 µM | –
COCc1c(-c2cc(Nc3ccc(N4CCN(C5COC5)C[C@@H]4C)cn3)c(=O)n(C)c2)ccnc1-n1ccn2c3c(cc2c1=O)CC(C)(C)C3 [Compound 228] | 0.171 µM | 0.139 µM | –
Cn1cc(-c2ccnc(-n3ccn4c5c(cc4c3=O)CC(C)(C)C5)c2CO)cc(Nc2ccc(N3CCC4(CC3)COC4)cn2)c1=O [Compound 229] | 0.012 µM | 0.01 µM | –
Cn1cc(-c2ccnc(-n3ccn4c5c(cc4c3=O)CC(C)(C)C5)c2CO)cc(Nc2ccc(N3CCN(C4COC4)CC34CC4)cn2)c1=O [Compound 231] | 0.005 µM | 0.004 µM | –
Cn1cc(-c2ccnc(-n3ccn4c5c(cc4c3=O)CC(C)(C)C5)c2CO)cc(Nc2ccc(N3CCC4(CCOC4)CC3)cn2)c1=O [Compound 233] | 0.04 µM | 0.008 µM | –
Cn1cc(-c2ccnc(-n3ccn4c5c(cc4c3=O)CC(C)(C)C5)c2CO)cc(Nc2ccc(N3C4CC3CN(C3COC3)C4)cn2)c1=O [Compound 235] | 0.022 µM | 0.013 µM | –
C=CC(=O)N1CCC[C@@H](n2nc(-c3ccc(Oc4ccccc4)cc3)c3c(N)ncnc32)C1 [Ibrutinib, reference compound] | – | – | Number of animals with CR (Day 21) ([3]; 50 mg/kg oral gavage once a day, 8 animals per group): 1; Tumor volume (mm^3) ± SD Day 0 ([3]; 50 mg/kg oral gavage once a day, Day 0, before drug administration): 397 ± 42 mm^3; TGI (%) [3, 4]: 42.4%; Tumor volume (mm^3) ± SD Day 21 [3, 4]: 2027 ± 991 mm^3; RBW (%) (Day 21) ([3]; 50 mg/kg oral gavage once a day, relative body weight): 111.4%; Tumor growth inhibition (TGI %) ([3]; 50 mg/kg, oral gavage once a day, 21 days after treatment, vs vehicle control): 42.4%

Further compounds by falling IC50 [2], results first:

IC50 (BTK recombinant protein) | IC50 [2] | SMILES | other results
0.031 µM | 0.024 µM | CCn1cc(-c2ccnc(-n3ccn4c5c(cc4c3=O)CC(C)(C)C5)c2CO)cc(Nc2ccc(N3CCOC[C@@H]3C)nn2)c1=O [Compound 214] | –
0.029 µM | 0.02 µM | Cn1cc(-c2ccnc(-n3ccn4c5c(cc4c3=O)CC(C)(C)C5)c2CO)cc(Nc2ccc(N3C[C@@H]4C[C@H]3CN4C3COC3)cn2)c1=O [Compound 230] | –
– | 0.017 µM | C[C@H]1CN(C2COC2)CCN1c1ccc(Nc2nc(-c3ccnc(-n4ccn5c6c(cc5c4=O)CC(C)(C)C6)c3CO)cn(C)c2=O)nc1 [Compound 20] | IC50 [1]: 0.462 µM
– | 0.014 µM | CCn1cc(Nc2cc(-c3ccnc(-n4ccn5c6c(cc5c4=O)CC(C)(C)C6)c3CO)cn(C)c2=O)nn1 [Compound 24] | IC50 [1]: 0.085 µM
0.008 µM | 0.012 µM | C[C@@H]1CN(c2ccc(Nc3cc(-c4ccnc(-n5ncn6c7c(c(F)c6c5=O)CCCC7)c4CO)cn(C)c3=O)nc2)[C@@H](C)CN1C1COC1 [Compound 221] | –
0.008 µM | 0.01 µM | CC[C@H]1CN(C2COC2)CCN1c1ccc(Nc2cc(-c3ccnc(-n4ccn5c6c(cc5c4=O)CC(C)(C)C6)c3CO)cn(C)c2=O)nn1 [Compound 217] | –
0.032 µM | 0.01 µM | C[C@@H]1[C@H](C)N(c2ccc(Nc3cc(-c4ccnc(-n5ccn6c7c(cc6c5=O)CC(C)(C)C7)c4CO)cn(C)c3=O)nc2)CCN1C1COC1 [Compound 234] | –
0.008 µM | 0.005 µM | CC[C@H]1CN(C2COC2)CCN1c1ccc(Nc2cc(-c3ccnc(-n4ccn5c6c(c(F)c5c4=O)CCCC6)c3CO)cn(C)c2=O)nc1 [Compound 227] | –
– | 0.004 µM | CC1(C)Cc2cc3c(=O)n(-c4nccc(-c5cc(Nc6cc7n(n6)CCNC7)c6ncnn6c5)c4CO)ccn3c2C1 [Compound 17] | IC50 [1]: 0.026 µM
– | 0.002 µM | CN1CCn2nc(Nc3cc(-c4ccnc(-n5ccn6c7c(cc6c5=O)CC(C)(C)C7)c4CO)cn4ncnc34)cc2C1 [Compound 16] | IC50 [1]: 0.008 µM
– | 0.001 µM | CC1(C)Cc2cc3c(=O)n(-c4nccc(-c5cc(Nc6cc7n(n6)CCN(C6COC6)C7)c6ncnn6c5)c4CO)ccn3c2C1 [Compound 13] | IC50 [1]: 0.005 µM
